The compounds below were run against wild-type human cardiac sodium channel, hNav1.5 (Homo sapiens, UniProt Q14524) (assay: Late INa screening assay (late sodium current, PatchXpress whole cell patch clamp)). Conditions: compound at 10 μM; read-out: Late INa % blk.
Assay type: cell-based

Sequence of wild-type human cardiac sodium channel, hNav1.5 (Q14524 whole entry): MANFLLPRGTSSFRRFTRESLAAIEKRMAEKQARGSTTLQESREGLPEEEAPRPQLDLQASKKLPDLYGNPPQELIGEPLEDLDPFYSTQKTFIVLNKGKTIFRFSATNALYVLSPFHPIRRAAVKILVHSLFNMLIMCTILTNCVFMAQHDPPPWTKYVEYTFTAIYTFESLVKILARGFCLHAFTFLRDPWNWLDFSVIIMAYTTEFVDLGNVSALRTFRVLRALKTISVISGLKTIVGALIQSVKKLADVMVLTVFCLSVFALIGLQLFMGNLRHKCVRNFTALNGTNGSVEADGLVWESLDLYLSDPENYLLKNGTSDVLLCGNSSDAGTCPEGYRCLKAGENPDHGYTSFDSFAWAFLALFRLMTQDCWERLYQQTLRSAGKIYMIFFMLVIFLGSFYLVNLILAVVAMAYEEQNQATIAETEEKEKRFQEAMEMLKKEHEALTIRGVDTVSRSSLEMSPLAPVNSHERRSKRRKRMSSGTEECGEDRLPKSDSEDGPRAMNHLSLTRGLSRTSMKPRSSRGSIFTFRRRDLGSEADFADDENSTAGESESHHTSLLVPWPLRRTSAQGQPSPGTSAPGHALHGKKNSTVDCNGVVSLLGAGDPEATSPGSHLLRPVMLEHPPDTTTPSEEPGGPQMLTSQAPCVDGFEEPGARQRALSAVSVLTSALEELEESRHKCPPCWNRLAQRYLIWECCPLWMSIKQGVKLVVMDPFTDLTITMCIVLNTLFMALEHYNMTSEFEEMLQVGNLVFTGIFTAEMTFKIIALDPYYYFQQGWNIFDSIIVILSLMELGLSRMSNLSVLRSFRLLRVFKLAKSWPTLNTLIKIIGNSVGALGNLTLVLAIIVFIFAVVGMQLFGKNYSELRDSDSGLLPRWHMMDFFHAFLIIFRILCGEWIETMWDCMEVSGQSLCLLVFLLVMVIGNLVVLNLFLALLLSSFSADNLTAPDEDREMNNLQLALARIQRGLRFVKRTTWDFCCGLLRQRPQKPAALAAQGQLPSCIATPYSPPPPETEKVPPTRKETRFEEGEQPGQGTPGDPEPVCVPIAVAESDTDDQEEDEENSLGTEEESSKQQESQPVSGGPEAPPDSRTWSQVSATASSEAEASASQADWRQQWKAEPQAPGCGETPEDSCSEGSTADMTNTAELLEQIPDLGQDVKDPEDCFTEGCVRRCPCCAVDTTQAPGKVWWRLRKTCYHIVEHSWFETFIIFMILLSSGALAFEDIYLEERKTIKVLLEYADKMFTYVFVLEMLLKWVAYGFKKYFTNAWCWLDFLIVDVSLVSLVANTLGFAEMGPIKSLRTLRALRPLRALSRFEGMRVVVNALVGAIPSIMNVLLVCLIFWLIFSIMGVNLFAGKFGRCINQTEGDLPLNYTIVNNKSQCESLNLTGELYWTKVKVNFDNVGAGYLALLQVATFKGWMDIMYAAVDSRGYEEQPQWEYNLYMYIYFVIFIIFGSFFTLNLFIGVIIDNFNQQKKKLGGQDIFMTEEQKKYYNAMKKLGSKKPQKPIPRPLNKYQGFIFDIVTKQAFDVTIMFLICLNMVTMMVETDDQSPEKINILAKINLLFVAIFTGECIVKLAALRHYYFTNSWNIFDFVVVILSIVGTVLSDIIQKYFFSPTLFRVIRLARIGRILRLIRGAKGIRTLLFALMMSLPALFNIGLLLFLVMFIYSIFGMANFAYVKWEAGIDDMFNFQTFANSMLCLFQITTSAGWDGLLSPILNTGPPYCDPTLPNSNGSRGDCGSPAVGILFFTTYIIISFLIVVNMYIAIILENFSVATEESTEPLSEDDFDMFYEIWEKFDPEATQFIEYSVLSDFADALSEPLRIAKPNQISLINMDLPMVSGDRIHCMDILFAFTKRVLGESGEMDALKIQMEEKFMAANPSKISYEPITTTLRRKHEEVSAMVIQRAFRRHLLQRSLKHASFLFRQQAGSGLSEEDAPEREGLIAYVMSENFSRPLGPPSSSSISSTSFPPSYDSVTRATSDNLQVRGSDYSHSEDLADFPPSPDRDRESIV

SMILES | inhibition at 10 µM [%]
CC1=C(C(=O)OCc2ccccc2)C(c2cccc3ccccc23)c2c(-c3cccs3)n[nH]c2N1 (centres unmarked) [PT-076, benzyl 6-methyl-4-(naphthalen-1-yl)-3-(thiophen-2-yl)-4,7-dihydro-1H-pyrazolo[3,4-b]pyridine-5-carboxylate] | -4.3
CC1=C(C(=O)OCc2ccccc2)C(c2ccccc2B(O)O)n2nnnc2N1 (centres unmarked) [PT-255, 2-(6-(benzyloxycarbonyl)-5-methyl-4,7-dihydrotetrazolo[1,5-a]pyrimidin-7-yl)phenylboronic acid] | 20.6
CC1=C(C(=O)OCc2ccccc2)C(c2ccccc2-c2cccc(N)c2)n2nnnc2N1 (centres unmarked) [PT-399, benzyl 7-(3′-aminobiphenyl-2-yl)-5-methyl-4,7-dihydrotetrazolo[1,5-a]pyrimidine-6-carboxylate] | 66.2
CC1=C(C(=O)OCc2ccc(OC(F)(F)F)cc2)C(c2cccc3ccccc23)n2nnnc2N1 (centres unmarked) [PT-052, 4-(trifluoromethoxy)benzyl 5-methyl-7-(naphthalen-1-yl)-4,7-dihydrotetrazolo[1,5-a]pyrimidine-6-carboxylate] | 9.1
O=C1OCC(O)=C1C(C1=C(O)COC1=O)c1cccc2ccccc12 [PT-222, 3,3′-(naphthalen-1-ylmethylene)bis(4-hydroxyfuran-2(5H)-one)] | 15.8
CC1=C(C(=O)OCc2ccccc2)C(c2ccccc2-c2ccc(OCc3ccccc3)cc2)n2nnnc2N1 (centres unmarked) [PT-407, benzyl 7-(4′-(benzyloxy)biphenyl-2-yl)-5-methyl-4,7-dihydrotetrazolo[1,5-a]pyrimidine-6-carboxylate] | 10.6
CCOC(=O)C1=C(C)Nc2nnnn2C1c1ccccc1-c1cccs1 (centres unmarked) [PT-462, ethyl 5-methyl-7-(2-(thiophen-2-yl)phenyl)-4,7-dihydrotetrazolo[1,5-a]pyrimidine-6-carboxylate] | 63
COC(=O)C1=C(C)Nc2nnnn2C1c1sc2ccccc2c1-c1cccc(C(=O)O)c1 (centres unmarked) [PT-273, 3-(2-(6-(methoxycarbonyl)-5-methyl-4,7-dihydrotetrazolo[1,5-a]pyrimidin-7-yl)benzo[b]thiophen-3-yl)benzoic acid] | 14.1
CCOC(=O)C1=C(C)N(C)c2nnnn2C1c1cccc2ccccc12 (centres unmarked) [PT-015, ethyl 4,5-dimethyl-7-(naphthalen-1-yl)-4,7-dihydrotetrazolo[1,5-a]pyrimidine-6-carboxylate] | 27.2
CC1=C(C(=O)NCCc2ccccc2)C(c2cccc3ccccc23)n2nnnc2N1 (centres unmarked) [PT-310, 5-methyl-7-(naphthalen-1-yl)-N-phenethyl-4,7-dihydrotetrazolo[1,5-a]pyrimidine-6-carboxamide] | 23.6
COc1ccc(C2C(C(=O)OCc3ccccc3)=C(C)Nc3nnnn32)c([N+](=O)[O-])c1 (centres unmarked) [PT-419, benzyl 7-(4-methoxy-2-nitrophenyl)-5-methyl-4,7-dihydrotetrazolo[1,5-a]pyrimidine-6-carboxylate] | 44.2
CCCC1=C(C(=O)OCC)C(c2ccc(Br)s2)C(C(=O)OCC)=C(CCC)N1 [PT-182, diethyl 4-(5-bromothiophen-2-yl)-2,6-dipropyl-1,4-dihydropyridine-3,5-dicarboxylate] | 33
CCOC(=O)C1=C(C)Nc2nnnn2C1c1ccccc1-c1cccnc1 (centres unmarked) [PT-459, ethyl 5-methyl-7-(2-(pyridin-3-yl)phenyl)-4,7-dihydrotetrazolo[1,5-a]pyrimidine-6-carboxylate] | 10.3
CCOC(=O)C1=C(C)Nc2nnnn2C1c1c(C)cccc1C (centres unmarked) [PT-487, ethyl 7-(2,6-dimethylphenyl)-5-methyl-4,7-dihydrotetrazolo[1,5-a]pyrimidine-6-carboxylate] | 20.9
CCOC(=O)c1ccc(COc2ccccc2C2C(C(=O)OCc3ccccc3)=C(C)Nc3nnnn32)cc1 (centres unmarked) [PT-377, benzyl 7-(2-(4-(ethoxycarbonyl)benzyloxy)phenyl)-5-methyl-4,7-dihydrotetrazolo[1,5-a]pyrimidine-6-carboxylate] | 30.3
CC1=C(C(=O)OCc2ccccc2)C(c2ccsc2)n2nnnc2N1 (centres unmarked) [PT-041, benzyl 5-methyl-7-(thiophen-3-yl)-4,7-dihydrotetrazolo[1,5-a]pyrimidine-6-carboxylate] | 41.4
CCOC(=O)C1=C(C)Nc2nnnn2C1c1ccccc1OCc1ccc(C(=O)OCC)cc1 (centres unmarked) [PT-482, ethyl 7-(2-(4-(ethoxycarbonyl)benzyloxy)phenyl)-5-methyl-4,7-dihydrotetrazolo[1,5-a]pyrimidine-6-carboxylate] | 3.2
CCOC(=O)C1=C(C)Nc2ccnn2C1c1ccc(OC)cc1C#N (centres unmarked) [PT-491, ethyl 7-(2-cyano-4-methoxyphenyl)-5-methyl-4,7-dihydropyrazolo[1,5-a]pyrimidine-6-carboxylate] | -0.9
CC1=C(C(=O)OCc2ccccc2)C(c2ccccc2-c2ccc(C(C)O)cc2)n2nnnc2N1 (centres unmarked) [PT-404, benzyl 7-(4′-(1-hydroxyethyl)biphenyl-2-yl)-5-methyl-4,7-dihydrotetrazolo[1,5-a]pyrimidine-6-carboxylate] | 80.9

SMILES | inhibition at 10 µM [%]
CC1=C(C(=O)OCc2ccc(C#N)cc2)C(c2cccc3ccccc23)n2nnnc2N1 (centres unmarked) [PT-046, 4-cyanobenzyl 5-methyl-7-(naphthalen-1-yl)-4,7-dihydrotetrazolo[1,5-a]pyrimidine-6-carboxylate] | 67
CCOC(=O)C1=C(C)Nc2ccnn2C1c1cccc(Oc2ccccc2)c1 (centres unmarked) [PT-463, ethyl 5-methyl-7-(3-phenoxyphenyl)-4,7-dihydropyrazolo[1,5-a]pyrimidine-6-carboxylate] | 42.3
COc1ccc(COC(=O)C2=C(C)NC(C)=C(C(=O)OCc3ccc(OC)c(OC)c3)C2c2ccc3ccccc3c2)cc1OC [PT-130, bis(3,4-dimethoxybenzyl) 2,6-dimethyl-4-(naphthalen-2-yl)-1,4-dihydropyridine-3,5-dicarboxylate] | 15.7
CC1=C(C(=O)OCc2ccccc2)C(c2ccc(C(F)(F)F)cc2C(F)(F)F)n2nnnc2N1 (centres unmarked) [PT-384, benzyl 7-(2,4-bis(trifluoromethyl)phenyl)-5-methyl-4,7-dihydrotetrazolo[1,5-a]pyrimidine-6-carboxylate] | 29.4
CC1=C(C(=O)OCc2ccccc2)C(c2ccc3c(c2)OCCO3)n2nnnc2N1 (centres unmarked) [PT-035, benzyl 7-(2,3-dihydrobenzo[b][1,4]dioxin-6-yl)-5-methyl-4,7-dihydrotetrazolo[1,5-a]pyrimidine-6-carboxylate] | 44
CCOC(=O)C1=C(C(F)(F)F)Nc2nnnn2C1c1cccc2ccccc12 (centres unmarked) [PT-009, ethyl 7-(naphthalen-1-yl)-5-(trifluoromethyl)-4,7-dihydrotetrazolo[1,5-a]pyrimidine-6-carboxylate] | 8.2
CCOC(=O)C1=C(C)Nc2nnnn2C1c1c(Cl)cccc1Cl (centres unmarked) [PT-486, ethyl 7-(2,6-dichlorophenyl)-5-methyl-4,7-dihydrotetrazolo[1,5-a]pyrimidine-6-carboxylate] | 30.8
CC1=C(C(=O)NNC(=O)Cc2ccccc2)C(c2cccc3ccccc23)C2=C(CCCC2=O)N1 (centres unmarked) [PT-266, 2-methyl-4-(naphthalen-1-yl)-5-oxo-N′-(2-phenylacetyl)-1,4,5,6,7,8-hexahydroquinoline-3-carbohydrazide] | 8.8
COC(=O)C1=C(C)Nc2ccnn2C1c1nc(C)cs1 (centres unmarked) [PT-511, methyl 5-methyl-7-(4-methylthiazol-2-yl)-4,7-dihydropyrazolo[1,5-a]pyrimidine-6-carboxylate] | 19.5
COc1cc(N(C)C)ccc1C1C(C(=O)OCc2ccccc2)=C(C)Nc2nnnn21 (centres unmarked) [PT-408, benzyl 7-(4-(dimethylamino)-2-methoxyphenyl)-5-methyl-4,7-dihydrotetrazolo[1,5-a]pyrimidine-6-carboxylate] | 30.4
CCOC(=O)C1=C(C)NC(C)=C(C(=O)OCC)C1c1cccc(-c2ccccc2)c1 [PT-439, diethyl 4-(biphenyl-3-yl)-2,6-dimethyl-1,4-dihydropyridine-3,5-dicarboxylate] | 56.1
COCCOC(=O)C1=C(C)NC(C)=C(C(=O)OCCOC)C1c1sccc1Br [PT-125, bis(2-methoxyethyl) 4-(3-bromothiophen-2-yl)-2,6-dimethyl-1,4-dihydropyridine-3,5-dicarboxylate] | 10.3
CC1=C(C(=O)OCc2ccccc2)C(c2ccccc2)c2ccccc2N1 (centres unmarked) [PT-321, benzyl 2-methyl-4-phenyl-1,4-dihydroquinoline-3-carboxylate] | 48.3
CC1=C(C(=O)OC(C)C)C(c2cnn(-c3ccccc3C)c2C)C2=C(CC(C)(C)CC2=O)N1 (centres unmarked) [PT-161, isopropyl 2,7,7-trimethyl-4-(5-methyl-1-o-tolyl-1H-pyrazol-4-yl)-5-oxo-1,4,5,6,7,8-hexahydroquinoline-3-carboxylate] | 6.8
COC(=O)C1=C(C)Nc2[nH]ncc2C1c1sc(Cl)nc1Cl (centres unmarked) [PT-510, methyl 4-(2,4-dichlorothiazol-5-yl)-6-methyl-4,7-dihydro-1H-pyrazolo[3,4-b]pyridine-5-carboxylate] | 19.9
CC1=C(C(=O)OCc2ccccc2)[C@@H](c2ccccc2-c2cccc(F)c2)n2nnnc2N1 [PT-240, (R)-benzyl 7-(3′-fluorobiphenyl-2-yl)-5-methyl-4,7-dihydrotetrazolo[1,5-a]pyrimidine-6-carboxylate] | 85
COC(=O)c1ccc(-c2ccc(COC(=O)C3=C(C)Nc4nnnn4C3c3cccc4ccccc34)cc2)cc1 (centres unmarked) [PT-200, (4′-(methoxycarbonyl)biphenyl-4-yl)methyl 5-methyl-7-(naphthalen-1-yl)-4,7-dihydrotetrazolo[1,5-a]pyrimidine-6-carboxylate] | 7.4
COc1cccc(OCc2ccccc2)c1C1C(C(=O)OCc2ccccc2)=C(C)Nc2nnnn21 (centres unmarked) [PT-382, benzyl 7-(2-(benzyloxy)-6-methoxyphenyl)-5-methyl-4,7-dihydrotetrazolo[1,5-a]pyrimidine-6-carboxylate] | 13.9
CCOC(=O)C1=C(C)Nc2ccnn2C1c1c(Br)sc2ccccc12 (centres unmarked) [PT-488, ethyl 7-(2-bromobenzo[b]thiophen-3-yl)-5-methyl-4,7-dihydropyrazolo[1,5-a]pyrimidine-6-carboxylate] | 82.3

— US20090012103A1, “SUBSTITUTED HETEROCYCLIC COMPOUNDS” (priority 2007, published 2009)
